Test results published in US20240117005A1, “NOVEL BICYCLIC PEPTIDES” (THE COUNCIL OF THE QUEENSLAND INSTITUTE OF MEDICAL RESEARCH, priority 2021, published 2024).

How the values were obtained:
4T1 cells = assay: WST-1 cell proliferation assay, 4T1; assay type: cell-based; settings: 4T1, WST-1, 72 hours
Method: (A) CT26, 4T1 or MDA-MB-231 Cells were treated with inhibitors for 72 hours. Following inhibition, media was removed and replaced with WST-1 cell proliferation reagent. Absorbance was recorded at 450 nm after 1 hour. Data represent a single independent experiment performed in triplicate. Results are graphed as mean +/− standard error (SE). B) MDA-MB-231 or CT26 cancer cells were treated with vehicle control, DL-2-Batch 1 (original stock), DL-2-Batch 2 (current stock), DL-2-TBAB or linear PDL1. Cells were permeabilised and were probed with the DUOLINK ligation assay. Cover slips were mounted on glass microscope slides with ProLong nucblue glass Antifade reagent (Life Technologies). PDL1Ac and IMPα1 DUOLINK Digital images were analysed using ImageJ software (ImageJ, NIH, Bethesda, MD, USA) and graphs represent the mean DOT Fluorescent Intensity in the nucleus or the cytoplasm compartments with significant differences calculated as per one-way ANOVA comparison. (C) MDA-MB-231 or CT26 cancer cells were treated with vehicle control, DL-2-Batch 1 (Original stock), DL-2-Batch 2 (current stock), DL-2-TBAB or linear PDL1. Cells were permeabilised and were probed with the DUOLINK ligation assay. Cover slips were mounted on glass microscope slides with ProLong nucblue glass Antifade reagent (Life Technologies). PDL1-unmodified and IMPα1 DUOLINK digital images were analysed using ImageJ software (ImageJ, NIH, Bethesda, MD, USA) and graphs represent the mean DOT fluorescent intensity in the nucleus or the cytoplasm compartments with significant differences calculated as per one-way ANOVA comparison.
4T1, CT26 or MDA-MB-231 cancer cell lines were treated with DL-2 or DL-2-D bicyclic inhibitors for 72 hours. Following inhibition, media was removed and replaced with WST-1 cell proliferation reagent. Absorbance was recorded at 450 nm after 1 hour. Data represent a single independent experiment performed in triplicate; results are graphed as mean +/− standard error (SE).

MCF-7 cells = assay: RNA-seq differential expression, DL-2 vs. Stimulated; assay type: cell-based, human; settings: MCF-7, DL-2 vs. Stimulated (PMA)
Source text: RNA-sequencing (RNA seq) data were obtained from human breast cancer cell line MCF-7 with and without DL-2 treatment. A total of 9 samples from […] experimental groups were collected, as follows: • Control (non-stimulated control, Ctrl) (n=3); • Stimulated (PMA stimulated control) (n=3); • DL-2 (treated with DL-2 and stimulated with PMA) (n=3); For the DL-2 treatment group, the MCF-7 cells were exposed to DL-2 first, then stimulated with PMA thereafter. RNA-seq data were generated, fastq data were downloaded to the QIMR Berghofer server, and then archived to the HSM by Scott Wood. Sequence reads were trimmed for adapter sequences using Cutadapt (version 1.9; Martin (2011)) and aligned using STAR (version 2.5.2a; Dobin et al. (2013)) to the GRCh37 assembly with the gene, transcript, and exon features of Ensembl (release 70) gene model. Quality control metrics were computed using RNA-SeQC (version 1.1.8; DeLuca et al. (2012)) and expression was estimated using RSEM (version 1.2.30; Li and Dewey (2011)). In our analysis, we corrected for library size by dividing each sample's gene count by million reads mapped. This procedure is a common approach known as counts per million (CPM). We further corrected for differences in RNA composition using a method proposed by Robinson and Oshlack (2010a) called trimmed mean of M values (TMM). We used the function calcNormFactors( ) from the edgeR package (Robinson, McCarthy, and Smyth (2010b)) to obtain TMM factors and used these to correct for differences in RNA composition. Differential expression (DE) analysis was performed using the R package edgeR (Robinson, McCarthy, and Smyth (2010b)). Note that the inputs for DE analysis are the filtered but not normalised read counts, since edgeR performs normalisation (library size and RNA composition) internally. The […]( ) function was used to fit a quasi-likelihood negative binomial generalised log-linear model to the read counts for each gene. Using the […]( ) function, we conducted gene-wise empirical Bayes quasi-likelihood F-tests for a given contrast. As per the edgeR user's guide, “the quasi-likelihood method is highly recommended for differential expression analyses of bulk RNA-seq data [versus the likelihood ratio test] as it gives stricter error rate control by accounting for the uncertainty in dispersion estimation”.

PDL2 = assay: Immunofluorescence microscopy of nuclear PDL2; assay type: cell-based, human; settings: MDA-MB-231 breast cancer cell line
Method: The cells were fixed and immunofluorescence microscopy was performed. Digital images were analysed using ImageJ software (ImageJ, NIH, Bethesda, MD, USA) to determine the mean nuclear fluorescent intensity (TNFI) in cells measured using ImageJ to select the nucleus minus background (n=>500 cells/sample).

CCCCCCCCCCCCCC(=O)NC(C)C(=O)NC1CSCc2cc3cc(c2)CSC[C@H](NC(=O)[C@H](Cc2ccccc2)NC(=O)[C@H](C(C)CC)NC(=O)[C@H](Cc2ccccc2)NC(=O)[C@H]([C@@H](C)O)NC(=O)C(CC(C)C)NC1=O)C(=O)N[C@@H](CCCNC(C)=N)C(=O)N[C@@H](CC(C)C)C(=O)N[C@@H](CCCNC(=N)N)C(=O)N[C@@H](CCCCN)C(=O)NCC(=O)N[C@@H](CCCNC(=N)N)C(=O)NC(C(=O)N[C@@H](CCSC)C(=O)NC(CCSC)C(=O)N[C@@H](CC(=O)O)C(=O)NC(C(=O)N[C@@H](CCCCN)C(=O)NC(CCCCN)C(=O)O)C(C)C)CSC3 (mixture of isomers) [DL-2]
inhibition of proliferation (4T1 cells): significantly inhibit the proliferation
inhibition of proliferation (4T1 cells; listed as DL-2-TBMB): able to effectively inhibit the proliferation
logFC A2M (MCF-7 cells): 1.461
logFC AKR1C1 (MCF-7 cells): −1.324
logFC ALDH1A3 (MCF-7 cells): −0.9248
logFC ATP6V0B (MCF-7 cells): 0.647
logFC B3GAT3 (MCF-7 cells): 0.8186
logFC BSCL2 (MCF-7 cells): 0.9849
logFC C19orf10 (MCF-7 cells): 0.7917
logFC CAMSAP2 (MCF-7 cells): −0.7468
logFC CD99 (MCF-7 cells): 0.6829
logFC CDKN2B (MCF-7 cells): −0.5982
logFC CHPF (MCF-7 cells): 0.6073
logFC CTNNAL1 (MCF-7 cells): −0.5943
logFC CTSD (MCF-7 cells): 1.079
logFC CXCL12 (MCF-7 cells): 1.155
logFC ELF1 (MCF-7 cells): −0.7207
logFC ENTPD1 (MCF-7 cells): 0.8956
logFC ETV3 (MCF-7 cells): −0.6424
logFC FILIP1L (MCF-7 cells): −0.7563
logFC FOXN3 (MCF-7 cells): −0.75
logFC IFIT2 (MCF-7 cells): −1.213
logFC IGFBP2 (MCF-7 cells): 0.7385
logFC IGFBP4 (MCF-7 cells): 0.6164
logFC INPP4B (MCF-7 cells): −0.6381
logFC KIAA1324 (MCF-7 cells): 0.6324
logFC KLHL5 (MCF-7 cells): −1.028
logFC MANF (MCF-7 cells): 0.8172
logFC MMP9 (MCF-7 cells): −1.43
logFC MOB1A (MCF-7 cells): −0.6723
logFC MUC1 (MCF-7 cells): 0.9921
logFC NEDD9 (MCF-7 cells): −0.7516
logFC NEU1 (MCF-7 cells): 0.6165
logFC PPIB (MCF-7 cells): 0.8358
logFC PRDX4 (MCF-7 cells): 0.6511
logFC QKI (MCF-7 cells): −0.8595
logFC RAI14 (MCF-7 cells): −0.8091
logFC SERPINA3 (MCF-7 cells): 1.008
logFC SGCG (MCF-7 cells): 1.126
logFC SIRT1 (MCF-7 cells): −0.7444
logFC SLC7A11 (MCF-7 cells): −0.8545
logFC STC1 (MCF-7 cells): 0.7265
logFC TACC1 (MCF-7 cells): −0.6077
logFC TAPBP (MCF-7 cells): 0.5968
logFC TBC1D5 (MCF-7 cells): −0.897
logFC TCN1 (MCF-7 cells): 2.029
logFC TFF1 (MCF-7 cells): 1.253
logFC TMED3 (MCF-7 cells): 0.6673
logFC TXNRD1 (MCF-7 cells): −0.7667
logFC ZMYND11 (MCF-7 cells): −2.883
logFC ZNF267 (MCF-7 cells): −0.6577
nuclear expression of PDL2 (PDL2): no effect at all
